{"source": "patent US9110064B2", "about": "“Methods for diagnosis and treatment of endometrial cancer” (THE REGENTS OF THE UNIVERSITY OF CALIFORNIA, priority 2005, dated 2015)", "origin": "cited, not measured here", "test_system": "PMP22", "details": "patients with Charcot Marie Tooth Type I"}
{"smiles": "CC(=O)[C@H]1CC[C@H]2[C@@H]3CCC4=CC(=O)CC[C@]4(C)[C@H]3CC[C@]12C", "note": "[progesterone]", "values": [{"measurement": "PMP22 levels", "value": "restore normal PMP22 levels"}, {"measurement": "disease phenotype", "value": "ameliorated the disease phenotype"}]}
